This note sets out measurements from PMC5816668, “Insights into the inhibitory mechanisms of NADH on the αγ heterodimer of human NAD-dependent isocitrate dehydrogenase” (Scientific Reports, 2018).

For experiment [1], the target named is T1, αγ heterodimer of human NAD-IDH (Homo sapiens, UniProt P50213+P51553).
T1 construct: gene IDH3A; E. coli BL21(DE3) Codon-Plus co-expression from pQlinkN-α-γ-tev-His6; C-terminal His6 of gamma cut with TEV protease; alpha 37 kDa, gamma 39 kDa; heterodimer
T1 sequence (P50213 28-366): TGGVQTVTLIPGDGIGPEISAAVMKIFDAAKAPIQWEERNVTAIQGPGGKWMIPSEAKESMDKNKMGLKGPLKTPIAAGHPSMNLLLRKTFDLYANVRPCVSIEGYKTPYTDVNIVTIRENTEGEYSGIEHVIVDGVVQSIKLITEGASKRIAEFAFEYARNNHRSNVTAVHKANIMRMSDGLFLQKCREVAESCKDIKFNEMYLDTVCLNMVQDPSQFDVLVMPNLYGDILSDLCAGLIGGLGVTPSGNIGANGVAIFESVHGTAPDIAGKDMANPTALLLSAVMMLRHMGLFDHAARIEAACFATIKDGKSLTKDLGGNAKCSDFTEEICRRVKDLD
T1 sequence (P51553 40-393): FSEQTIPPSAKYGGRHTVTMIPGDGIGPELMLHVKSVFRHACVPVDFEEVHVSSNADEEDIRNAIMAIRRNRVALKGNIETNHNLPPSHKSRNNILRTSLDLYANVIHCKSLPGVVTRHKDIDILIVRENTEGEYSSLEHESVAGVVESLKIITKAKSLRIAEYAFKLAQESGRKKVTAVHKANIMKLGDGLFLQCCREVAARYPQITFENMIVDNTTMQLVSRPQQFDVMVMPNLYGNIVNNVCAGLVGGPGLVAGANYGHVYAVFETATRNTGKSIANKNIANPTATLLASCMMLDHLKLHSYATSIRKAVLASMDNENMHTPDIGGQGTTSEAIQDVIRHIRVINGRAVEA
The experiment in a line: ITC. Format: binding. Conditions: read-out: K d (μ M) ^a. From the text:
ITC on αγ heterodimer of human NAD-IDH

The target in experiment [2] is T2, αβ heterodimer of human NAD-IDH (Homo sapiens, UniProt P50213).
T2 construct: gene IDH3A; alpha 37 kDa, beta 39 kDa; heterodimer
The experiment in a line: ITC. Format: binding. To be noted: 50 mM HEPES pH 7.4, 200 mM NaCl, 20 °C, read-out: K d (μ M) ^a. The source says:
ITC on αβ heterodimer of human NAD-IDH

Experiment [3] deals with T1, αγ heterodimer of human NAD-IDH. Briefly: NADH formation at […] nm. Format: biochemical.
Experiment [4] addresses T3, α2βγ heterotetramer of human NAD-IDH (Homo sapiens, UniProt P50213+P51553).
T3 construct: gene IDH3A; alpha 37 kDa, beta 39 kDa, gamma 39 kDa
Briefly: NADH formation at […] nm. To be noted: 33 mM Tris-acetate pH 7.4, 2 mM MnCl2, 20 mM DL-isocitrate, 1 mM NAD+, 25 °C. In kind it is biochemical.

Experiment [5] has as its target T3, α2βγ heterotetramer of human NAD-IDH. The experiment in a line: ITC. In kind it is binding. Conditions: 50 mM HEPES pH 7.4, 200 mM NaCl, 20 °C; single set of sites fit, n 2.53; read-out: K d (μ M) ^a. The source says: ITC on α2βγ heterotetramer of human NAD-IDH
Experiment [6] addresses T2, αβ heterodimer of human NAD-IDH. The experiment in a line: NADH formation at […] nm. Format: biochemical. To be noted: 33 mM Tris-acetate pH 7.4, 20 mM DL-isocitrate, 1 mM NAD+, 25 °C.

As usually defined, the IC50 is the concentration that inhibits the measured activity by half. Lower therefore signals greater potency.

Molecules are shown by their SMILES. Where two headings read alike, the source gives them in different places.

T2 sequence (O43837 35-385 partner, one chain of several): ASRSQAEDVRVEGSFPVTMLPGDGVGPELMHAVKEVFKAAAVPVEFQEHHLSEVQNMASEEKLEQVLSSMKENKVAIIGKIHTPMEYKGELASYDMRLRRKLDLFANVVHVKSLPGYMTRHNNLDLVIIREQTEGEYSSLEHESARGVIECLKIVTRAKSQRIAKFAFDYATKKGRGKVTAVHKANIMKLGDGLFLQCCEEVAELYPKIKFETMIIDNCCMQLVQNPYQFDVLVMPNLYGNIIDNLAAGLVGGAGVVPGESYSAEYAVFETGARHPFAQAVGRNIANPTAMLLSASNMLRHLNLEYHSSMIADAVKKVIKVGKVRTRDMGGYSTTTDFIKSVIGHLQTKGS
T3 sequence (O43837 35-385 partner, one chain of several): as above

`NC(=O)C1=CN([C@@H]2O[C@H](COP(=O)(O)OP(=O)(O)OC[C@H]3O[C@@H](n4cnc5c(N)ncnc54)[C@H](O)[C@@H]3O)[C@@H](O)[C@H]2O)C=CC1` [NADH]: the Kd in experiment [1] stood at 109 ± 19.5 µM; in experiment [2] (single set of sites fit, n 1.26), 4.6 ± 0.7 µM; in experiment [5], 46.3 ± 6.5 µM. Also, the IC50 was 82.7 ± 6 µM in experiment [3], 78.5 ± 5.4 µM in experiment [4] and 94.9 ± 7.8 µM in experiment [6].

As for `NC(=O)c1ccc[n+]([C@@H]2O[C@H](COP(=O)(O)OP(=O)(O)OC[C@H]3O[C@@H](n4cnc5c(N)ncnc54)[C@H](O)[C@@H]3O)[C@@H](O)[C@H]2O)c1` [NAD^+], in experiment [2] (no isocitrate, n 1.14), the Kd is 268 ± 28.4 µM.
